Tests used:
Format in all cases: cell-based, human
iPS cells [1] = assay: H1152 duration and aggregate formation, Experiment 1: cardiomyocyte differentiation; design: Average Cardiomyocyte Yield: unit not given here; conditions: for Average # cTnT Cells/Liter (in millions) / Average % Troponin T+ / Average Cardiomyocyte Yield / Average Cell Count per flask (in millions) / Average ratio iPS to CM: day 14, T25
Procedure: (§1) The purpose of this Example was to see the effect of 1 day or 2 day treatment with the compound on Cardiomyocyte development. Initial testing with H1152 included the compound in the media: 1 μM on day one with the TeSR media and 0.5 μM on day 2 with the compound in the aggregate transition media. After adopting a new method which included the H1152 compound for 1 day at 1 μM only, there appeared to be a loss of efficiency with the initial cell survival, resulting in this study to determine if extended H1152 would increase cell survival without a negative impact on […]. Cardiomyocyte differentiation conditions and experimental parameters were summarized in Tables 11-12 and 13-14 for Experiments 1 and 2, respectively. Critical reagents and materials were obtained as described in the previous example.

IPS 6.1 cells = assay: Effect of different concentrations of H1152 on cell survival; conditions: one day dose, FIG. 28
Procedure: FIG. 28: Effect of different concentrations of H1152 on cell survival with one day dose of H1152 on IPS 6.1 cells.
Effect of different concentrations of H1152 was also tested on cell survival with one day dose of H1152 on IPS 6.1 cells (FIG. 28).

iPS cells [2] = assay: H1152 duration and aggregate formation, Experiment 2: cardiomyocyte differentiation; design: Average Cardiomyocyte Yield: unit not given here; conditions: for Average # cTnT Cells/Liter (in millions) / Average % Troponin T+ / Average Cardiomyocyte Yield / Average Cell Count per flask (in millions) / Average ratio iPS to CM: day 14, T25
Procedure: as §1

[3] = 3e5 cells/ml seeding, H1152 1 μM 24 hour exposure
[4] = 3e5 cells/ml seeding, H1152 1 μM 48 hour exposure
[5] = 5e5 cells/ml seeding, H1152 1 μM 24 hour exposure
[6] = 5e5 cells/ml seeding, H1152 1 μM 48 hour exposure
[7] = 7e5 cells/ml seeding, H1152 1 μM 24 hour exposure
[8] = 7e5 cells/ml seeding, H1152 1 μM 48 hour exposure
[9] = 10e5 cells/ml seeding, H1152 1 μM 24 hour exposure
[10] = 10e5 cells/ml seeding, H1152 1 μM 48 hour exposure
[11] = 15e5 cells/ml seeding, H1152 1 μM 24 hour exposure
[12] = 15e5 cells/ml seeding, H1152 1 μM 48 hour exposure

## Cc1cncc2cccc(S(=O)(=O)N3CCCNC[C@@H]3C)c12 [H1152]
iPS cells [1]; [3]
  Average # cTnT Cells/Liter (in millions): 2.91 ± 1.27 millions
  Average % Troponin T+: 6.83 ± 0.26%
  Average Cardiomyocyte Yield: 17445 ± 7677
  Average Cell Count per flask (in millions): 0.25 ± 0.11 millions
  Average ratio iPS to CM: 99 ± 45
iPS cells [1]; [4]
  Average # cTnT Cells/Liter (in millions): 9.92 ± 0.25 millions
  Average % Troponin T+: 4.40 ± 1.00%
  Average Cardiomyocyte Yield: 59575 ± 1514
  Average Cell Count per flask (in millions): 1.39 ± 0.28 millions
  Average ratio iPS to CM: 25 ± 1
iPS cells [1]; [5]
  Average # cTnT Cells/Liter (in millions): 3.02 ± 1.66 millions
  Average % Troponin T+: 6.26 ± 3.40%
  Average Cardiomyocyte Yield: 18123 ± 10004
  Average Cell Count per flask (in millions): 0.46 ± 0.48 millions
  Average ratio iPS to CM: 180 ± 119
iPS cells [1]; [6]
  Average # cTnT Cells/Liter (in millions): 19.52 ± 8.01 millions
  Average % Troponin T+: 3.37 ± 1.12%
  Average Cardiomyocyte Yield: 117137 ± 48094
  Average Cell Count per flask (in millions): 3.41 ± 0.47 millions
  Average ratio iPS to CM: 24 ± 11
iPS cells [1]; [7]
  Average # cTnT Cells/Liter (in millions): 6.54 ± 0.91 millions
  Average % Troponin T+: 5.41 ± 1.58%
  Average Cardiomyocyte Yield: 39272 ± 5494
  Average Cell Count per flask (in millions): 0.77 ± 0.29 millions
  Average ratio iPS to CM: 90 ± 12
iPS cells [1]; [8]
  Average # cTnT Cells/Liter (in millions): 11.71 ± 6.74 millions
  Average % Troponin T+: 2.23 ± 0.28%
  Average Cardiomyocyte Yield: 70299 ± 40479
  Average Cell Count per flask (in millions): 3.19 ± 1.81 millions
  Average ratio iPS to CM: 72 ± 58
iPS cells [1]; [9]
  Average # cTnT Cells/Liter (in millions): 8.53 ± 3.67 millions
  Average % Troponin T+: 3.29 ± 2.73%
  Average Cardiomyocyte Yield: 51174 ± 22025
  Average Cell Count per flask (in millions): 1.95 ± 0.91 millions
  Average ratio iPS to CM: 116 ± 66
iPS cells [1]; [10]
  Average # cTnT Cells/Liter (in millions): 37.33 ± 11.90 millions
  Average % Troponin T+: 4.70 ± 1.08%
  Average Cardiomyocyte Yield: 224015 ± 71410
  Average Cell Count per flask (in millions): 4.69 ± 0.64 millions
  Average ratio iPS to CM: 24 ± 9
iPS cells [1]; [11]
  Average # cTnT Cells/Liter (in millions): 13.35 ± 5.17 millions
  Average % Troponin T+: 2.05 ± 0.89%
  Average Cardiomyocyte Yield: 80131 ± 31034
  Average Cell Count per flask (in millions): 4.01 ± 0.46 millions
  Average ratio iPS to CM: 105 ± 43
iPS cells [1]; [12]
  Average # cTnT Cells/Liter (in millions): 49.87 ± 21.23 millions
  Average % Troponin T+: 4.84 ± 1.61%
  Average Cardiomyocyte Yield: 299246 ± 127411
  Average Cell Count per flask (in millions): 6.16 ± 1.31 millions
  Average ratio iPS to CM: 28 ± 10
iPS cells [1]; Experiment 1, each cell density condition, 14 days
  Effect of increasing H1152 exposure duration to 48 hours on cTnT yield: increased cTnT yield in each cell density condition
iPS cells [1]; two day treatment at 1 μM, each of the experiments
  Cell survival: significant increase in the cell survival
IPS 6.1 cells
  Optimal concentration for aggregate formation: 1 µM
iPS cells [2]; [3]
  Average # cTnT Cells/Liter (in millions): 11.06 ± 9.07 millions
  Average % Troponin T+: 12.71 ± 1.72%
  Average Cardiomyocyte Yield: 66383 ± 54471
  Average Cell Count per flask (in millions): 0.57 ± 0.54 millions
  Average ratio iPS to CM: 33 ± 20
iPS cells [2]; [4]
  Average # cTnT Cells/Liter (in millions): 34.67 ± 15.81 millions
  Average % Troponin T+: 7.99 ± 2.24%
  Average Cardiomyocyte Yield: 208066 ± 94874
  Average Cell Count per flask (in millions): 2.52 ± 0.51 millions
  Average ratio iPS to CM: 8 ± 4
iPS cells [2]; [5]
  Average # cTnT Cells/Liter (in millions): 8.84 ± 6.01 millions
  Average % Troponin T+: 9.98 ± 2.40%
  Average Cardiomyocyte Yield: 53055 ± 36109
  Average Cell Count per flask (in millions): 0.52 ± 0.35 millions
  Average ratio iPS to CM: 67 ± 49
iPS cells [2]; [6]
  Average # cTnT Cells/Liter (in millions): 38.40 ± 23.14 millions
  Average % Troponin T+: 5.20 ± 3.33%
  Average Cardiomyocyte Yield: 230454 ± 138874
  Average Cell Count per flask (in millions): 4.56 ± 0.48 millions
  Average ratio iPS to CM: 14 ± 7
iPS cells [2]; [9]
  Average # cTnT Cells/Liter (in millions): 14.18 ± 7.34 millions
  Average % Troponin T+: 5.42 ± 1.08%
  Average Cardiomyocyte Yield: 85129 ± 44092
  Average Cell Count per flask (in millions): 1.54 ± 063 millions
  Average ratio iPS to CM: 72 ± 42
iPS cells [2]; [10]
  Average # cTnT Cells/Liter (in millions): 16.03 ± 13.63 millions
  Average % Troponin T+: 1.40 ± 1.45%
  Average Cardiomyocyte Yield: 96206 ± 81824
  Average Cell Count per flask (in millions): 7.84 ± 1.14 millions
  Average ratio iPS to CM: 77 ± 44
iPS cells [2]; [11]
  Average # cTnT Cells/Liter (in millions): 28.54 ± 10.83 millions
  Average % Troponin T+: 6.48 ± 2.42%
  Average Cardiomyocyte Yield: 171264 ± 65034
  Average Cell Count per flask (in millions): 2.63 ± 0.14 millions
  Average ratio iPS to CM: 48 ± 17
iPS cells [2]; [12]
  Average # cTnT Cells/Liter (in millions): 28.13 ± 30.17 millions
  Average % Troponin T+: 2.36 ± 2.03%
  Average Cardiomyocyte Yield: 168815 ± 181030
  Average Cell Count per flask (in millions): 6.16 ± 1.31 millions
  Average ratio iPS to CM: 97 ± 85
iPS cells [2]; Experiment 2, cultures initially seeded with 3e5 and 5e5 cells/mL, 14 days
  Effect of increasing H1152 exposure duration to 48 hours on cTnT yield: increased cTnT yield in the cultures initially seeded with 3e5 and 5e5 cells/mL

— US10604739B2, “Cardiomyocyte production” (Cellular Dynamics International, Inc., priority 2009, dated 2020)
